# Biological target: acetylcholinesterase (AChE) (Electrophorus electricus, UniProt O42275)
# Assay: Ellman spectrophotometric microplate assay, […] nm
# Type: biochemical
# Chain of acetylcholinesterase (AChE) (O42275 24-633): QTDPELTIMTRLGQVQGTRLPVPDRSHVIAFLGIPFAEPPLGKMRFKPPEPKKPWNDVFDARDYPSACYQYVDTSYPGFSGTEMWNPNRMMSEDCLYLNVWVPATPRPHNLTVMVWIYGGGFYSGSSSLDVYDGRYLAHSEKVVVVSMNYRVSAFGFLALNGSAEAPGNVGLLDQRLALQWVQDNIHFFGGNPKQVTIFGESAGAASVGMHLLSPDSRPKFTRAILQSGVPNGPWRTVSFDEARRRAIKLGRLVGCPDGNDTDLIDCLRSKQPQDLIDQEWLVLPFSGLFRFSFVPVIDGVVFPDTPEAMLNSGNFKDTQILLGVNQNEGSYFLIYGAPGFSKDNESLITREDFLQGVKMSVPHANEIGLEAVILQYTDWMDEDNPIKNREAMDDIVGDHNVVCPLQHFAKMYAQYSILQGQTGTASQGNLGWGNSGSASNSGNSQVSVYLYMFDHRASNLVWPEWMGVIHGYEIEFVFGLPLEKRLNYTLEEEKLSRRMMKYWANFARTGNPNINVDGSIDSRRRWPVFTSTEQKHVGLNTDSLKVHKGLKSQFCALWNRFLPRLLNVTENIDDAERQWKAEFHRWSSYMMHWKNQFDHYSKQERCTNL
row,Compound,IC50 [µM]
1,"CC(=O)O[C@H]1[C@H]2c3cc4c(cc3C=[N+]3CCC(=C[C@@H]1O)[C@H]23)OCO4 [compound 1, 1-O-acetyl-5,6-dehydrolycorine]",620
2,"CC(=O)O[C@H]1[C@H]2c3cc4c(cc3CN3CCC(=C[C@@H]1O)[C@H]23)OCO4 [compound 2, 1-O-acetyl-lycorine]",1430
3,"CC(=O)OC1[C@@H](OC(C)=O)C=C2CC[N+]3=Cc4cc5c(cc4[C@H]1[C@@H]23)OCO5 (stereo partly drawn) [compound 3, 1,2-O-diacetyl-5,6-dehydrolycorine]",46.3
